Results as given in patent US20220144812A1, “QUINOLINE DERIVATIVES AND THEIR USE FOR THE TREATMENT OF CANCER” (Epizyme, Inc., priority 2019, published 2022).
Read-outs that look alike come from different tables or passages of the source.

Key:
647V cells = experiment: High throughput proliferation (HTP) assay; type: cell-based; settings: high throughput proliferation, read-out: CREBBP HTP IC50
How it was run: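 Proliferation IC50 (micromolar) derived from a 7-day CellTiter-Glo viable-cell readout in 647V cells exposed, in triplicate, to rising compound concentrations; cells grown in DMEM plus 15% heat-inactivated FBS at 37° C under 5% CO2.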

CREBBP (1084-1701) = target: T1, CREBBP (1084-1701) (Homo sapiens, UniProt Q92793); experiment: Biochemical assay for CREBBP (1084-1701), SAMDI; settings: SAMDI, read-out: CREBBP Biochemistry IC50
T1 construct: measured in the following biochemical assay using CREBBP (1084-1701); purchased
T1 sequence (Q92793 1084-1701): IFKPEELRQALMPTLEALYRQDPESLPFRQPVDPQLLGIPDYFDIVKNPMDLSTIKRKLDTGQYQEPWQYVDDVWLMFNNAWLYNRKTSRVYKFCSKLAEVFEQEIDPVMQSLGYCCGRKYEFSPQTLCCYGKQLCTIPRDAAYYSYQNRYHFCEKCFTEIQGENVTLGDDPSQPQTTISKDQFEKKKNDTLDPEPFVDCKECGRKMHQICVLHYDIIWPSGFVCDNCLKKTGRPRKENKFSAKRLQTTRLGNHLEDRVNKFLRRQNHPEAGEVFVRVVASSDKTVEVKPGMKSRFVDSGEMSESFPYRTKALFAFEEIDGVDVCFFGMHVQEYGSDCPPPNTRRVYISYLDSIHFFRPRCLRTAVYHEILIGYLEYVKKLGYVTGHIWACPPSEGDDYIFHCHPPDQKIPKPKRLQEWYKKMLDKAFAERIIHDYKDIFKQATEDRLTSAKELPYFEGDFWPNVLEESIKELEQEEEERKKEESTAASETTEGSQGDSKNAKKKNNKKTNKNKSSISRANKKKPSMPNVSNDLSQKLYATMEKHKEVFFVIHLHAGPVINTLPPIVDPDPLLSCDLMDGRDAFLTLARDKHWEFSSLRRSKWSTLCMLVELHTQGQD
How it was run: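 Acetyltransferase activity measured by SAMDI mass spectrometry after capture on biochip. Enzyme sat with compound 30 min at RT before acetyl-CoA and biotinylated H3 11-25 (K14R, K23R) peptide were added for 30 min at RT. Formic acid quench, bicarbonate neutralisation; IC50 values reported.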

[1] = tested on: H3K18Ac in HB-CLS-2 cells; experiment: H3K18AC in-cell western (ICW) assay; type: cell-based; settings: H3K18Ac in-cell western, read-out: CREBBP ICW IC50
How it was run: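 In-cell western: after methanol fixation, blocking, overnight 4° C anti-H3K18Ac staining, then 800CW secondary plus DRAQ5 for DNA content, integrated intensities were scanned at 800 and 700 nm. Before this, compound exposure lasted 2 hr at 37° C in HB-CLS-2 cells plated 16–24 hours earlier. Values expressed as IC50 (μM).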

EP300 (P300(1048-1664)) = target: T2, EP300 (P300(1048-1664)) (Homo sapiens, UniProt Q09472); experiment: Biochemical assay for EP300, SAMDI; settings: EP300, SAMDI; read-out: EP300 Biochemistry IC50
T2 construct: P300(1048-1664)
T2 sequence (Q09472 1048-1664): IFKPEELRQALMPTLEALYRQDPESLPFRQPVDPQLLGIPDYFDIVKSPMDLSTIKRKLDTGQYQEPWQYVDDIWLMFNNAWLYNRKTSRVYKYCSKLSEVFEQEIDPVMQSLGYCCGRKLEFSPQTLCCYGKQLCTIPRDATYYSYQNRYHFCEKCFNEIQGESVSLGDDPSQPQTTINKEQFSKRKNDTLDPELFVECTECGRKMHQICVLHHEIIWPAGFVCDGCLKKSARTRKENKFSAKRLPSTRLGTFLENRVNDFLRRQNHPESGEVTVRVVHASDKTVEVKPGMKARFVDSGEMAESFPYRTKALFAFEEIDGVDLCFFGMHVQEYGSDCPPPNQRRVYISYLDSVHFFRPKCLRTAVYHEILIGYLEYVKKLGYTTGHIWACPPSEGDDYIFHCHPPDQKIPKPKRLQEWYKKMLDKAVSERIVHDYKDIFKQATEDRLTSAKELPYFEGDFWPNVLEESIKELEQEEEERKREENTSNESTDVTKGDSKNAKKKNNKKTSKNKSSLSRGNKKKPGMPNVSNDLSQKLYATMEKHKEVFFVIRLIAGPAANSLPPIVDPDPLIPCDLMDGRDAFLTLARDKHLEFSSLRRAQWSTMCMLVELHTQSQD
Description: The following example describes materials and methods relating to a biochemical assay for EP300. IC50 values (micromolar (μM)) are summarized in Table 1, Table 2, and Table 3 under the column labeled: “EP300 Biochemistry IC50 (micromolar).”

[2] = Homo sapiens, 647-V, 647V cells

Row | Compound | IC50 (CREBBP (1084-1701)) [nM] | IC50 [1] [nM] | IC50 (EP300 (P300(1048-1664))) [nM] | IC50 ([1]; HB-CLS-2 cells) [nM] | IC50 (647V cells; Homo sapiens, 647-V) [nM] | IC50 (647V cells; [2]) [nM] | IC50 (647V cells) [nM]
1 | CCn1ncc(CN(C)C(=O)c2cc(-c3ccc(N4CC(N(C)C)C4)c(C)n3)nc3ccc(Cl)cc23)c1C [Compound 497] | 846 | 1630 | 661 | – | 2560 | – | –
2 | CCn1ncc(CN(C)C(=O)c2nc(-c3cn(CCNC)nc3C)nc3ccc(Cl)cc23)c1C [Compound 144] | 5400 | 8400 | 8900 | – | 3300 | – | –
3 | CCn1ncc(CN(C)C(=O)c2cc(-c3cn[nH]c3N)nc3ccc(Cl)cc23)c1C [Compound 227] | 50000 | – | 41000 | 20000 | – | 20000 | –
4 | CCn1ncc(CN(C)C(=O)c2cc(-c3ccnc(N)c3)nc3ccc(Cl)cc23)c1C [Compound 94] | 2100 | 1700 | 1500 | – | 1500 | – | –
5 | CCn1ncc(CN(C)C(=O)c2nc(-c3cc(C)c(OCCCNC)c(NC)c3)nc3ccc(Cl)cc23)c1C [Compound 451] | 3010 | 13000 | 3880 | – | 2280 | – | –
6 | CCn1ncc(CN(C)C(=O)c2nc(-c3cc4c(NC)n[nH]c4cc3C)nc3ccc(Br)cc23)c1C [Compound 562] | 49.4 | 154 | 14.9 | – | 87.9 | – | –
7 | CCn1ncc(CN(C)C(=O)c2cc(-c3cnc(OCCNC)cn3)nc3ccc(Cl)cc23)c1C [Compound 413] | 21000 | – | 7400 | 6400 | – | 5000 | –
8 | CCn1ncc(CN(C)C(=O)c2cc(-c3cnc(CNC)[nH]3)nc3ccc(Cl)cc23)c1C [Compound 149] | 14000 | 7800 | 6700 | – | 9200 | – | –
9 | CCn1ncc(CN(C)C(=O)c2nc(-c3cc(C(=O)NCCCN4CCCC4)[nH]n3)nc3ccc(Cl)cc23)c1C [Compound 75] | 130 | 1000 | 54 | – | 510 | – | –
10 | CCc1ncc(CN(C)C(=O)c2cc(-c3cc(C(=O)NC)n(C)n3)nc3ccc(COC)cc23)n1C [Compound 627] | 49.6 | 271 | 15.6 | – | 506 | – | –
11 | CCn1ncc(CN(C)C(=O)c2nc(-c3cc(CNC)nn3C)nc3ccc(Cl)cc23)c1C [Compound 403] | 50000 | – | 22000 | 12000 | – | 10000 | –
12 | CCn1ncc(CN(C)C(=O)c2nc(-c3ccc(OCCCNC)c(C(C)(C)C)c3)nc3ccc(Cl)cc23)c1C [Compound 462] | 9700 | 16400 | 15800 | – | 1410 | – | –
13 | CCn1ncc(CN(C)C(=O)c2cc(-c3cc(NCCN(C)C)cc(C)n3)nc3ccc(Cl)cc23)c1C [Compound 570] | 45 | 76.3 | 13.7 | – | 30.1 | – | –
14 | CCn1ncc(CN(C)C(=O)c2nc(-n3cc(CCN(C)C)cn3)nc3ccc(Cl)cc23)c1C [Compound 405] | 5700 | – | 2700 | 1600 | – | 1700 | –
15 | CCc1nc(-c2cc(C(=O)N(C)Cc3cnn(CC)c3C)c3cc(Cl)ccc3n2)ccc1NCCN(C)C [Compound 573] | 46.5 | 52.7 | 45.4 | – | 49.3 | – | –
16 | CCn1ncc(CN(C)C(=O)c2nc(-c3cc(Cl)cc(NCCN(C)C(=O)OC(C)(C)C)c3)nc3ccc(Cl)cc23)c1C [Compound 121] | 410 | 3500 | 860 | – | 3800 | – | –
17 | CCn1ncc(CN(C)C(=O)c2cc(-c3ccc(NC4CN(CC#N)C4)c(C)n3)nc3ccc(Cl)cc23)c1C [Compound 601] | 44.9 | 143 | 30.2 | – | 72.6 | – | –
18 | CCn1ncc(CN(C)C(=O)c2cc(-c3cc(C(=O)NC)n(C)n3)nc3ccc(COC)cc23)c1C [Compound 520] | 80.7 | 334 | 23.8 | – | 650 | – | –
19 | CCn1ncc(CN(C)C(=O)c2nc(-c3ccc(OCCO)c(OC)c3)nc3ccc(Cl)cc23)c1C [Compound 102] | 4000 | 2100 | 4300 | – | 2300 | – | –
20 | CCn1ncc(CN(C)C(=O)c2nc(-c3cc4c(N)nn(CCNC)c4cc3C)nc3ccc(Cl)cc23)c1C [Compound 507] | 556 | 1600 | 1360 | – | 1010 | – | –
21 | CCc1ncc(CN(C)C(=O)c2nc(-c3cc(C)cc(NC4CCNC4)c3)nc3ccc(COC)cc23)n1C (stereo not drawn) [Compound 501] | 148 | 3890 | 36.8 | – | 1150 | – | –
22 | CCn1ncc(CN(C)C(=O)c2nc(-c3cn[nH]c3C)nc3ccc(Cl)cc23)c1C [Compound 100] | 11000 | 2100 | 6300 | – | 1600 | – | –
23 | CCn1ncc(CN(C)C(=O)c2nc(-c3cn(C)cn3)nc3ccc(Cl)cc23)c1C [Compound 170] | 58000 | 14000 | 13000 | – | 6900 | – | –

These reach a lower IC50 (CREBBP (1084-1701)). Values come first.

Row | IC50 (CREBBP (1084-1701)) [nM] | IC50 [1] [nM] | IC50 (EP300 (P300(1048-1664))) [nM] | IC50 ([1]; HB-CLS-2 cells) [nM] | Compound | IC50 (647V cells; Homo sapiens, 647-V) [nM] | IC50 (647V cells; [2]) [nM] | IC50 (647V cells) [nM]
24 | 41 | 410 | 320 | – | CCn1ncc(CN(C)C(=O)c2nc(-c3ccc(OCCCNC)c(C4CC4)c3)nc3ccc(Cl)cc23)c1C [Compound 46] | 200 | – | –
25 | 31.4 | 253 | 107 | – | CCn1ncc(CN(C)C(=O)c2cc(-c3cc4c(N)n[nH]c4c(C)n3)nc3ccc(Cl)cc23)c1C [Compound 519] | 326 | – | –
26 | 31 | 180 | 48 | – | CCn1ncc(CN(C)C(=O)c2nc(-c3ccc(OCCNC)c(Cl)c3)nc3ccc(Cl)cc23)c1C [Compound 21] | 120 | – | –
27 | 29.9 | 350 | 6.3 | – | CCn1ncc(CN(C)C(=O)c2cc(-c3cc(N[C@@H]4CCNC4)cc(C)n3)nc3ccc(Cl)cc23)c1C [Compound 531] | 88.9 | – | –
28 | 23.8 | 550 | 12.5 | – | CCn1ncc(CN(C)C(=O)c2cc(-c3cc(NC4CNC4)cc(C)n3)nc3ccc(Cl)cc23)c1C [Compound 547] | 105 | – | –
29 | 18.3 | 113 | 9.2 | – | CCn1ncc(CN(C)C(=O)c2nc(-c3cc4c(NC)noc4cc3C)nc3ccc(Cl)cc23)c1C [Compound 624] | 284 | – | –
30 | 14 | 140 | 2.9 | – | CCn1ncc(CN(C)C(=O)c2nc(-c3cc(Cl)cc(NCCNC)c3)nc3ccc(Cl)cc23)c1C [Compound 14] | – | – | 39
31 | 14 | 180 | 14 | – | CCn1ncc(CN(C)C(=O)c2nc(-c3cc(Cl)c4c[nH]nc4c3)nc3ccc(COC)cc23)c1C [Compound 22] | 210 | – | –
32 | 13.7 | 113 | 33.7 | – | CCc1ncc(CN(C)C(=O)c2nc(-c3cc(N)c4c[nH]nc4c3)nc3ccc(Cl)cc23)n1C [Compound 546] | 96.4 | – | –
33 | 10.2 | 213 | 13.5 | – | CCn1ncc(CN(C)C(=O)c2nc(-c3cc(C)c4c(=O)[nH][nH]c4c3)nc3ccc(Cl)cc23)c1C [Compound 468] | 158 | – | –
34 | 9.5 | 77 | 5.3 | – | CCn1ncc(CN(C)C(=O)c2nc(-c3cc4n[nH]cc4cc3Cl)nc3ccc(Cl)cc23)c1C [Compound 7] | 66 | – | –
35 | 3.3 | 27 | 2.1 | – | CCn1ncc(CN(C)C(=O)c2nc(-c3cc4c(C)[nH]nc4cc3Cl)nc3ccc(Cl)cc23)c1C [Compound 1] | 20 | – | –
36 | 2.5 | 84.8 | 37.8 | – | CCn1ncc(CN(C)C(=O)c2nc(-c3cc(N)c4cn[nH]c4c3)nc3ccc(Cl)cc23)c1C [Compound 438] | 78.5 | – | –
